The results in this text go back to US10160755B2 (Plexxikon Inc., priority 2015, dated 2018).

The term IC50 denotes the concentration at which inhibition is half-maximal.

Molecules are shown by their SMILES.

One assay deals with T1, FLT3-ITD (Homo sapiens, UniProt P36888).
T1 construct: FLT3-ITD; Invitrogen #PV6190
T1 sequence (P36888 1-993): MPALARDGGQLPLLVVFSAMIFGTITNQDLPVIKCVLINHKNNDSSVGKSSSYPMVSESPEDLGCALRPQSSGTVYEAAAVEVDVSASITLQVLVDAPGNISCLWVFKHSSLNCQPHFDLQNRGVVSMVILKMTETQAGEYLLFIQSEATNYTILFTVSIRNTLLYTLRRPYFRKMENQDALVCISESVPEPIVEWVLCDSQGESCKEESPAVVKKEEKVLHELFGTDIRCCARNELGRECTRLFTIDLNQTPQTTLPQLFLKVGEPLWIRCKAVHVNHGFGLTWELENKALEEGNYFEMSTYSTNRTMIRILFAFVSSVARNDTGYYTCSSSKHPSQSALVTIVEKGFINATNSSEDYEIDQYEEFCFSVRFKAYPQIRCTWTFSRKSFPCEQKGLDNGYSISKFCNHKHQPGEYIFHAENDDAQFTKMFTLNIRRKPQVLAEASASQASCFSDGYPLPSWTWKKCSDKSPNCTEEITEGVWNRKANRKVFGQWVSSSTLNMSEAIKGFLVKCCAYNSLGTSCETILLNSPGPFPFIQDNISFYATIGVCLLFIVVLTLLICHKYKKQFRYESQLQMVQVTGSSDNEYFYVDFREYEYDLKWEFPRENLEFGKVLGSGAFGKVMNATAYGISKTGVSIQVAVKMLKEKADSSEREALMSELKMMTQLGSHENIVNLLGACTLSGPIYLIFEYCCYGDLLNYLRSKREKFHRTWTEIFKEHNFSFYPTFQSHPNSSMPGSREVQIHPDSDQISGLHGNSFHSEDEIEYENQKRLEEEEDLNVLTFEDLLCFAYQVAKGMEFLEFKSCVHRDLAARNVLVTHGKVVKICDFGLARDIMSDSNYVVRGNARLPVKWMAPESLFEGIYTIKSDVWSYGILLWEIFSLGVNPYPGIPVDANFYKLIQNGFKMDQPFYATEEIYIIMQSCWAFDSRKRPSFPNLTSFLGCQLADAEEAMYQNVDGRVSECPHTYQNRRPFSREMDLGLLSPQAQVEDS
The assay can be described thus: FLT3-ITD biochemical kinase assay (AlphaScreen). An outline of the steps: (§1)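 Recombinant FLT3 mutant kinases phosphorylate biotin-poly(Glu4-Tyr) peptide (30 nM) at 10 μM ATP for D835Y or 100 μM for ITD. Phosphorylation detected by AlphaScreen: streptavidin donor beads (20 min) then anti-phosphotyrosine PY20 acceptor beads (60 min, RT), signal at 580 nm; inhibition lowers signal.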
Background: Bead proximity is the source of the signal in Alpha formats.

The next assay has as its target T2, FLT3-D835Y (Homo sapiens, UniProt P36888, D835Y).
T2 construct: purchased Invitrogen PV3967
T2 sequence (P36888 27-993 D835Y): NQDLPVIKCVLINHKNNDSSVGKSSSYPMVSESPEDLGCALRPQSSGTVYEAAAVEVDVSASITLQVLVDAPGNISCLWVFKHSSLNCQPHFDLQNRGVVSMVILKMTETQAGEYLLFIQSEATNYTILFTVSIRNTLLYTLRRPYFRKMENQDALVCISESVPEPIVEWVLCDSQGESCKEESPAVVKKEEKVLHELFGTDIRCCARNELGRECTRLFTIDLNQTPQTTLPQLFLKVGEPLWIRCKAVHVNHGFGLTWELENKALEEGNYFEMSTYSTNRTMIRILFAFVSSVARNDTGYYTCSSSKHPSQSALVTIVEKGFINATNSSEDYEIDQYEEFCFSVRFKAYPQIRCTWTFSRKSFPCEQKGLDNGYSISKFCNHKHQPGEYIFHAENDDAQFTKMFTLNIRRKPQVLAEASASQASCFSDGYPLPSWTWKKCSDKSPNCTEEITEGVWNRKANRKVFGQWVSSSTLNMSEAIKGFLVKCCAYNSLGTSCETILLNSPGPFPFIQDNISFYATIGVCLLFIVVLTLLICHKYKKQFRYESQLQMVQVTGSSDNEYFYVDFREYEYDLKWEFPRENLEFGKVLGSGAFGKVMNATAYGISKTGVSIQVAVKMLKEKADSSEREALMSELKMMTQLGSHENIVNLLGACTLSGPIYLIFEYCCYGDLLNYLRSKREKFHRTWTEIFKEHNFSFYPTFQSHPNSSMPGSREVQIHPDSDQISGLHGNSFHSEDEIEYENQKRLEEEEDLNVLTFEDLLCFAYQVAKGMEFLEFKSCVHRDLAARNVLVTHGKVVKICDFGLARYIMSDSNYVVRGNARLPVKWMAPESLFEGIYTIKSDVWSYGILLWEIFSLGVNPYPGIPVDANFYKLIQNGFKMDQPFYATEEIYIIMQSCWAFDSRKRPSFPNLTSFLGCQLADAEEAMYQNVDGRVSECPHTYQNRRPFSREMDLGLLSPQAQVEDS
The assay can be described thus: FLT3-D835Y biochemical kinase assay (AlphaScreen). In short, it runs like this: as §1

Turning to `c1cc(N2CCCCC2)ccc1-c1cnc2[nH]cc(-c3ccc4ncn(C5CCCNC5)c4c3)c2n1` (centres unmarked) [P-346, 7-[3-(3-piperidyl)benzimidazol-5-yl]-2-[4-(1-piperidyl)phenyl]-5H-pyrrolo[2,3-b]pyrazine], the IC50 on FLT3-ITD and against FLT3-D835Y was 0.0001 to 1 µM throughout.

Regarding `CC(C)(C)n1cnc2ccc(-c3c[nH]c4nnc(Cl)cc34)cc21` [P-314, 5-(3-tert-butylbenzimidazol-5-yl)-3-chloro-7H-pyrrolo[2,3-c]pyridazine], the IC50 at FLT3-ITD and against FLT3-D835Y was 0.0001 to 1 µM in each case.

Regarding `Cc1ncc(C#Cc2cnc3[nH]cc(-c4ccc5ncn(C6CCCNC6)c5c4)c3n2)cn1` (centres unmarked) [P-285, 2-[2-(2-methylpyrimidin-5-yl)ethynyl]-7-[3-(3-piperidyl)benzimidazol-5-yl]-5H-pyrrolo[2,3-b]pyrazine], the IC50 on FLT3-ITD and against FLT3-D835Y was 0.0001 to 1 µM in each case.

Consider `c1nc(N2CCOCC2)ncc1-c1cnc2[nH]cc(-c3ccc4ncn(C5CCCNC5)c4c3)c2c1` (centres unmarked) [P-277, 4-[5-[3-[3-(3-piperidyl)benzimidazol-5-yl]-1H-pyrrolo[2,3-b]pyridin-5-yl]pyrimidin-2-yl]morpholine], for which the IC50 on FLT3-ITD and at FLT3-D835Y was 0.0001 to 1 µM each time.

With `CC(C)(C)n1cnc2ccc(-c3c[nH]c4ncc(-c5ccc(C#N)nc5)cc34)cc21` [P-290, 5-[3-(3-tert-butylbenzimidazol-5-yl)-1H-pyrrolo[2,3-b]pyridin-5-yl]pyridine-2-carbonitrile], the IC50 at FLT3-ITD and against FLT3-D835Y was 0.0001 to 1 µM throughout.

For `CN1CCN(c2ccc(-c3cnc4[nH]cc(-c5ccc6ncn(C(C)(C)C)c6c5)c4n3)cc2)CC1` [P-341, 7-(3-tert-butylbenzimidazol-5-yl)-2-[4-(4-methylpiperazin-1-yl)phenyl]-5H-pyrrolo[2,3-b]pyrazine], the half-maximal inhibitory concentration (IC50) at FLT3-ITD and at FLT3-D835Y was 0.0001 to 1 µM throughout.

Consider `CC(C)(C)n1cnc2ccc(-c3c[nH]c4ncc(-c5ccc(N6CCCS6(=O)=O)cc5)cc34)cc21` [P-320, 2-[4-[3-(3-tert-butylbenzimidazol-5-yl)-1H-pyrrolo[2,3-b]pyridin-5-yl]phenyl]-1,2-thiazolidine 1,1-dioxide], for which the IC50 at FLT3-ITD and at FLT3-D835Y was 0.0001 to 1 µM in each case.

Regarding `O=S1(=O)CCCN1c1ccc(-c2cnc3[nH]cc(-c4ccc5ncn(C6CCCNC6)c5c4)c3c2)cc1` (centres unmarked) [P-319, 2-[4-[3-[3-(3-piperidyl)benzimidazol-5-yl]-1H-pyrrolo[2,3-b]pyridin-5-yl]phenyl]-1,2-thiazolidine 1,1-dioxide], the IC50 on FLT3-ITD and against FLT3-D835Y was 0.0001 to 1 µM throughout.

For the molecule `COc1cnc2[nH]cc(-c3ccc4ncn(C5CCC5)c4c3)c2c1` [P-061, 1-cyclobutyl-6-(5-methoxy-1H-pyrrolo[2,3-b]pyridin-3-yl)benzimidazole], the IC50 at FLT3-ITD and on FLT3-D835Y was 0.0001 to 1 µM each time.

`CC(C)(C)n1cnc2ccc(-c3n[nH]c4ncc(-c5ccnc(N6CCOCC6)c5)cc34)cc21` [P-297, 4-[4-[3-(3-tert-butylbenzimidazol-5-yl)-1H-pyrazolo[3,4-b]pyridin-5-yl]-2-pyridyl]morpholine]: the IC50 at FLT3-ITD and at FLT3-D835Y was 0.0001 to 1 µM in each case.

With `COc1cc(-c2cnc3[nH]cc(-c4ccc5ncn(C6(C(F)(F)F)CC6)c5c4)c3n2)ccn1` [P-312, 2-(2-methoxy-4-pyridyl)-7-[3-[1-(trifluoromethyl)cyclopropyl]benzimidazol-5-yl]-5H-pyrrolo[2,3-b]pyrazine], the half-maximal inhibitory concentration (IC50) against FLT3-ITD and at FLT3-D835Y was 0.0001 to 1 µM throughout.

As for `Cn1cnc2ccc(-c3c[nH]c4nnc(Cl)cc34)cc21` [P-313, 3-chloro-5-(3-methylbenzimidazol-5-yl)-7H-pyrrolo[2,3-c]pyridazine], the half-inhibitory concentration (IC50) at FLT3-ITD and against FLT3-D835Y was 0.0001 to 1 µM in each case.

Turning to `Cc1ccc(-c2cnc3[nH]cc(-c4ccc5ncn(C(C)(C)C)c5c4)c3n2)cn1` [P-388, 7-(3-tert-butylbenzimidazol-5-yl)-2-(6-methyl-3-pyridyl)-5H-pyrrolo[2,3-b]pyrazine], the IC50 against FLT3-ITD and on FLT3-D835Y was 0.0001 to 1 µM throughout.

With `CCN1CCN(c2cc(-c3cnc4[nH]cc(-c5ccc6ncn(C(C)(C)C)c6c5)c4n3)ccn2)CC1` [P-328, 7-(3-tert-butylbenzimidazol-5-yl)-2-[2-(4-ethylpiperazin-1-yl)-4-pyridyl]-5H-pyrrolo[2,3-b]pyrazine], the IC50 at FLT3-ITD and on FLT3-D835Y was 0.0001 to 1 µM throughout.

Take `CC(C)(C)n1cnc2ccc(-c3c[nH]c4ncc(-c5ccc(N6CCOCC6)nc5)nc34)cc21` [P-326, 4-[5-[7-(3-tert-butylbenzimidazol-5-yl)-5H-pyrrolo[2,3-b]pyrazin-2-yl]-2-pyridyl]morpholine]: the IC50 on FLT3-ITD and on FLT3-D835Y was 0.0001 to 1 µM throughout.

For the molecule `CC(C)(C)n1cnc2ccc(-c3c[nH]c4ncc(-c5cccc(N6CCOCC6)c5)cc34)cc21` [P-316, 4-[3-[3-(3-tert-butylbenzimidazol-5-yl)-1H-pyrrolo[2,3-b]pyridin-5-yl]phenyl]morpholine], the IC50 at FLT3-ITD and against FLT3-D835Y was 0.0001 to 1 µM throughout.

On to `COc1ncc(-c2cnc3[nH]cc(-c4ccc5ncn(C6CCCNC6)c5c4)c3c2)cn1` (centres unmarked) [P-276, 5-(2-methoxypyrimidin-5-yl)-3-[3-(3-piperidyl)benzimidazol-5-yl]-1H-pyrrolo[2,3-b]pyridine], for which the IC50 against FLT3-ITD and at FLT3-D835Y was 0.0001 to 1 µM throughout.

With `CC(C)(C)n1cnc2ccc(-c3c[nH]c4ncc(-c5cnc(N6CCC(F)(F)CC6)nc5)nc34)cc21` [P-357, 7-(3-tert-butylbenzimidazol-5-yl)-2-[2-(4,4-difluoro-1-piperidyl)pyrimidin-5-yl]-5H-pyrrolo[2,3-b]pyrazine], the half-maximal inhibitory concentration (IC50) against FLT3-ITD and against FLT3-D835Y was 0.0001 to 1 µM in each case.

In the case of `CC(C)(C)n1cnc2ccc(-c3c[nH]c4ncc(-c5ccc(N6CCCCC6)cc5)nc34)cc21` [P-345, 7-(3-tert-butylbenzimidazol-5-yl)-2-[4-(1-piperidyl)phenyl]-5H-pyrrolo[2,3-b]pyrazine], the IC50 against FLT3-ITD and on FLT3-D835Y was 0.0001 to 1 µM throughout.

Take `O=S1(=O)CCCN1c1cc(-c2cnc3[nH]cc(-c4ccc5ncn(C6CCCNC6)c5c4)c3c2)ccn1` (centres unmarked) [P-311, 2-[4-[3-[3-(3-piperidyl)benzimidazol-5-yl]-1H-pyrrolo[2,3-b]pyridin-5-yl]-2-pyridyl]-1,2-thiazolidine 1,1-dioxide]: the IC50 on FLT3-ITD and at FLT3-D835Y was 0.0001 to 1 µM each time.

Turning to `c1cc(-c2cnc3[nH]cc(-c4ccc5ncn(C6CCCNC6)c5c4)c3n2)cc(N2CCCCC2)c1` (centres unmarked) [P-337, 7-[3-(3-piperidyl)benzimidazol-5-yl]-2-[3-(1-piperidyl)phenyl]-5H-pyrrolo[2,3-b]pyrazine], the IC50 against FLT3-ITD and on FLT3-D835Y was 0.0001 to 1 µM in each case.

`Cc1cc(C#Cc2cnc3[nH]cc(-c4ccc5ncn(C6CCCNC6)c5c4)c3n2)cc(C)n1` (centres unmarked) [P-283, 2-[2-(2,6-dimethyl-4-pyridyl)ethynyl]-7-[3-(3-piperidyl)benzimidazol-5-yl]-5H-pyrrolo[2,3-b]pyrazine]: the IC50 against FLT3-ITD and against FLT3-D835Y was 0.0001 to 1 µM each time.
